The values that follow come from US20100249138A1, “MPZP: A SMALL MOLECULE CORTICOTROPIN-RELEASING FACTOR TYPE 1 RECEPTOR (CRF1) ANTOGONIST” (priority 2007, published 2010).

Each structure is given as a SMILES string. Entries after “also recorded” stand apart in the source; their conditions may differ.

Test [1] deals with defensive burying model of active anxiety-like behavior. In words: Defensive burying test (Study 1). The test is classed as in vivo, rat. The text has this: The defensive burying test was used to assess effects of MPZP on anxiety-like behavior [Treit et al., Pharmacol. Biochem. Behay. (1981) 15:619-626; De Boer et al., Eur. J. Pharmacol. (2003) 463:145-161]. This model has been validated by anxiolytic and anxiogenic compounds, which decrease and increase defensive burying behavior, respectively [Korte et al., Physiol. Behay. (1994) 56:115-120; De Boer et al., Eur. J. Pharmacol. (2003) 463:145-161]. For two consecutive days before defensive burying testing, animals were acclimated to the testing apparatus by placing them for 45 minutes in the testing cage (a polycarbonate rat housing cage with 2 cm of bedding covering the floor and a small hole centered on a long dimension of the cage 1 inch above the bedding to accommodate the shock probe on the subsequent test day). On the day of testing, animals were brought into the anteroom at least 2 hours before testing began. Subjects were subcutaneously pretreated with MPZP (0, 5, 20 mg/kg) in a between-subjects design 1 hour before their test session. For testing, animals were placed individually in the test cage, and a shock probe connected to a Coulbourn precision shocker (model E13-01, Coulbourn Instruments, Allentown, Pa.) delivered one 1.5 mA shock (lasting <1 s) upon contact. As soon as the animal was shocked (verified by a startle response), the shock current was deactivated, and the 10 minute test began. Contact with the shock probe under these conditions results in the rat displacing bedding material with treading-like movements of the forepaws and shoveling movements of the head, often directed toward the shock probe. Latency to the first display of burying behavior and time spent burying (in four 2.5 minute bins throughout the 10 minute test) were assessed [Korte et al., Physiol. Behay. (1994) 56:115-120]. […] The effect of MPZP on defensive burying behavior (latency to first bury and burying time) were analyzed by analysis of variance (ANOVA), in which Dose was a between-subjects factor and Time bin was a repeated measure for duration of burying.

Test [2] has as its system animal model of alcohol dependence. In words: Operant alcohol and water self-administration in alcohol vapor-dependent and nondependent rats (Study 2). The test is classed as in vivo, rat. Conditions: for alcohol self-administration (g/kg intake): 0, 5, 10, 20 mg/kg. The source says: The effect of MPZP on drinking behavior was studied in an established animal model of alcohol dependence. […] (2006) 26:11324-11332; see also Roberts et al., Alcohol Clin. Exp. Res. (1996) 20:1289-1298; Overstreet et al., Alcohol Clin. Exp. Res. (2002) 26:1259-1268; Rimondini et al., FASEB J. (2002) 16:27-35; Valdez et al., Alcohol Clin. Exp. Res. (2002) 26:1494-1501 for related models].
Animals were permitted to self-administer alcohol or water orally in a concurrent, two-lever, free-choice contingency. A continuous reinforcement (fixed ratio-1) schedule was used in which each lever press was reinforced. Animals acquired alcohol self-administration using a variation of the previously described saccharin fading free-choice operant conditioning protocol [Samson et al., Alcohol Clin. Exp. Res. (1986) 10:436-442].
The present procedure culminates in pharmacologically relevant levels of alcohol self-administration, as defined by blood alcohol levels (BALs), in nondependent animals with limited access to alcohol over a 6-week period [Roberts et al., Alcohol Clin. Exp. Res. (1999) 23:1151-1157]. The modified procedure in the present study utilized a sweetened solution (“supersac”) containing 3% glucose and 0.125% saccharin (Sigma, St. Louis, Mo.) instead of water restriction and 0.2% saccharin to initiate and maintain operant responding [Funk et al., J. Neurosci. (2006) 26:11324-11332].
Animals respond for the sweetened solution within 1-2 training sessions, making water restriction unnecessary. Operant sessions during training were conducted 5 days per week between 0900 and 1500 (lights on at 0600). Operant sessions were 30 minutes in duration, except during the initial days of training in which sessions lasted up to 2 hours to permit acquisition of responding for the sweetened solution. Alcohol (10% w/v) then was added to the sweetened solution, and once mean responding stabilized (around one week) the glucose was removed from the solution, leaving only 0.125% saccharin and 10% w/v ethanol.
Animals then were maintained on 10% w/v ethanol for at least 3 weeks, and stable responders (±25% across three consecutive sessions) were evenly divided into two groups matched for baseline responding and exposed to intermittent ethanol vapors (dependent) or air (nondependent) as described below. A total of 16 rats (dependent, n=8; nondependent, n=8) were used for this experiment.
The self-administration system comprised test chambers (Coulbourn Instruments, Allentown, Pa.) contained within wooden sound-attenuated ventilated cubicles. The test chambers were equipped with two retractable levers located 4 cm above the grid floor and 4.5 cm to either side of a small stainless steel receptacle containing two drinking cups. […] Tap water was delivered to one dish, and the experimental solution (e.g., sweetened solution or alcohol) was delivered to the other dish. Fluid delivery and recording of operant self-administration were controlled by a computer. Lever presses were not recorded during the 0.5 second inter-response time-out interval when solution was being delivered.
A recent modification of the alcohol dependence model was made to reflect the natural progression of alcohol dependence in which alcohol exposure occurs in a series of extended exposures followed by periods of withdrawal [O′Dell et al., Alcohol Clin. Exp. Res. (2004) 28:1676-1682]. Chronic exposure to intermittent alcohol vapor exposure elicits even higher alcohol self-administration than continuous vapor (Ibid.), and the intermittent procedure therefore was used to induce dependence in trained animals in the present study. Vapors were delivered on a 14 hours on/10 hours off schedule for 4 weeks before post-vapor testing began.
Beginning 4 weeks after the onset of vapor exposure, post-vapor alcohol self-administration testing was conducted 2 times per week during acute withdrawal (6-8 hours after cessation of daily vapor exposure). […]

Turning to `COCCN(CCOC)c1cc(C)nc2c(-c3ccc(OC)cc3C)c(C)nn12` [MPZP, N,N-bis(2-methoxyethyl)-3-(4-methoxy-2-methylphenyl)-2,5-dimethyl-pyrazolo[1,5-a]pyrimidin-7-amine], in test [1] (0, 5, 20 mg/kg s.c., systemic pretreatment), the “total duration of defensive burying behavior” value is on record as “dose-dependently reduced; also recorded: reduced defensive burying time”. Besides, the “duration of burying across the 10-minute observation period” value in test [1] (20 mg/kg s.c., 1 hour before test, vs vehicle) is recorded as “significantly reduced”. In addition, the “latency to start burying” value in test [1] (5 and 20 mg/kg s.c., 1 hour before test, vs vehicle) is reported as “increased the latency to start burying”. Moreover, the ED50 in test [2] (Rattus norvegicus, sc, dependent animals, acute withdrawal (6-8 hours), s.c. 1 hour before 30 minute session, read-out: ED50, reduction of alcohol self-administration (sigmoidal dose-response fit)) came to 10.7 mg/kg. Moreover, the “alcohol self-administration (g/kg intake)” value is listed as “dose-dependently reduced; also recorded: significantly reduced” in test [2] (dependent animals, 20 mg/kg vs vehicle) and “not nondependent animals; also recorded: no effect” in test [2] (nondependent animals). Also, the alcohol responses in test [2] (dependent animals, 5 mg/kg) turned out to be 72±14; in test [2] (dependent animals, 10 mg/kg), 70±7; in test [2] (dependent animals, 20 mg/kg), 47±7; in test [2] (nondependent animals, 5 mg/kg), 37±5; in test [2] (nondependent animals, 10 mg/kg) it was 32±5; in test [2] (nondependent animals, 20 mg/kg) it was 33±4. In test [2] (dependent or nondependent animals), the “water self-administration (responses)” value is listed as “no effect”.
